In brackets after ≈: the same amount, converted by molar mass.
What was measured:
Assay in all cases: MIC by agar-dilution, Diagnostic Sensitivity Test agar
Assay type in all cases: cell-based
[1] = test system: B. fragilis AMP R (542008); settings: Bacteroides fragilis, inoculum 10^4 CFU/spot
Text: (§1) The following results were obtained for representative compounds on a standard in vitro test system using Diagnostic Sensitivity Test agar medium. The antibacterial activity is described in terms of the minimum inhibitory concentration (MIC) determined by the agar-dilution technique with an inoculum size of 10^4 CFU/spot.

[2] = test system: E.coli DCO (341098); settings: Escherichia coli, inoculum 10^4 CFU/spot
Text: as §1

[3] = test system: Ent.cloacae P99^- (401054); settings: Enterobacter cloacae
Text: as §1

[4] = test system: P. aeruginosa 18S (101024); settings: Pseudomonas aeruginosa, inoculum 10^4 CFU/spot
Text: as §1

[5] = test system: P.aeruginosa PU21 (101028); settings: Pseudomonas aeruginosa, inoculum 10^4 CFU/spot
Text: as §1

[6] = test system: Pr.morganii (433001); settings: Morganella morganii, inoculum 10^4 CFU/spot
Text: as §1

[7] = test system: S.dublin (369001); settings: Salmonella enterica, inoculum 10^4 CFU/spot
Text: as §1

[8] = test system: Serr.marcesens (421003); settings: inoculum 10^4 CFU/spot
Text: as §1

[9] = test system: St.aureus 147N (601052); settings: Staphylococcus aureus, inoculum 10^4 CFU/spot
Text: as §1

[10] = test system: Strep.pyogenes (681018); settings: Streptococcus pyogenes, inoculum 10^4 CFU/spot
Text: as §1

C[C@@H](O)[C@H]1C(=O)N2C(C(=O)O)=C(S[C@@H]3CN[C@H](C(=O)Nc4cc(O)c(O)c(C#N)c4)C3)[C@H](C)[C@H]12 [Example 2, (1R,5S,6S,8R,2'S,4'S)-2-(2-(5-Cyano-3,4-dihydroxyphenylcarbamoyl)pyrrolidin-4-ylthio)-6-(1-hydroxyethyl)-1-methyl-carbapenem-3-carboxylic acid]
MIC [1]: 0.25 µg/mL (≈ 0.512 µM)
MIC [2]: 0.015 µg/mL (≈ 0.0307 µM)
MIC [3]: 0.015 µg/mL (≈ 0.0307 µM)
MIC [4]: 0.06 µg/mL (≈ 0.123 µM)
MIC [5]: 0.25 µg/mL (≈ 0.512 µM)
MIC [6]: 0.125 µg/mL (≈ 0.256 µM)
MIC [7]: 0.008 µg/mL (≈ 0.0164 µM)
MIC [8]: 0.125 µg/mL (≈ 0.256 µM)
MIC [9]: 0.25 µg/mL (≈ 0.512 µM)
MIC [10]: 0.008 µg/mL (≈ 0.0164 µM)
